Molecules are shown by their SMILES. pEC50, pIC50: −log10 of the molar value.

By pIC50 is commonly meant −log10 of the IC50, conventionally taken in molar units. The low end stands for a high IC50, the high end for a low IC50. The term pEC50 denotes the EC50 on a negative log10 scale, so that one unit is a factor of ten.

Experiment [1] concerns the target Cbl-b (Homo sapiens (Human), UniProt Q13191). The experiment is described as follows: Cbl-b probe displacement HTRF binding assay. Particulars: 0.4 nM biotinylated Cbl-b, 150 nM BODIPY probe. How it is done: The affinity with which compounds of the present disclosure bind to Cbl-b was assessed using probe displacement homologous time resolved fluorescence (HTRF) assays. The assays used a BODIPY™ conjugated probe (Example 54 from WO 2020264398) and biotinylated Cbl-b. The assays were performed in assay buffer consisting of 20 mM Hepes, 150 mM NaCl, 0.01% Triton X-100, 0.5 mM TCEP, 0.01% BSA. On the day of the assay, a 20 point, 1:2 master serial dilution of each compound was prepared in DMSO to span a final concentration range of 10 μM to 0 nM. Two hundred nanoliters of diluted compound was added to each well of a 384-well plate. Fifteen microliters of biotinylated-Cbl-b resuspended in assay buffer were added to each well and the plate incubated for 60 minutes at room temperature prior to addition of 5 μL of BODIPY™ probe in assay buffer. Final assay conditions included 0.4 nM of Cbl-b and 150 nM of BODIPY™ probe. After a further 15 minutes of incubation at room temperature, 5 μl of Streptavidin-Terbium cryptate reagent at 5-fold final concentration was added to each well of the 384-well plate. Binding of a probe to Cbl-b results in an increase of HTRF signal. HTRF signal was measured by Envision plate reader, while competition of a compound of the present disclosure with probe results in a decrease of signal. Percentage maximum activity in each test well was calculated based on DMSO (maximum activity, 0% displacement) and no protein control wells (baseline activity, 100% displacement). Binding affinity was determined from a dose response curve fitted using a standard four parameter fit equation. See Table 3 for data for compounds (Cbl-b Binding (IC50)).
(In general: TR-FRET usually uses a lanthanide donor and a delayed reading to cut background.)

Experiment [2] deals with Jurkat cells. The experiment is described as follows: IL-2 secretion assay in CD3/CD28-activated Jurkat cells (AlphaLISA). Format: cell-based, human. Particulars: CD3/CD28 activation, 24 h. How it is done: Certain compounds were also evaluated in an IL-2 secretion assay. On the day of the assay, a 16 point, 1:2 master serial dilution of each compound was prepared in Opti-MEM to span a final concentration range of […]. Assays were set up in CORNING® tissue culture-treated 384-well microplates containing 60 nL of each dilution. Jurkat cells grown in RPMI-1640 supplemented with 10% FBS, 1% Glutamax, and 1% Pen/Strep were collected, resuspended in Opti-MEM. 50,000 cells/well and added to the compound plates. After a short spin (1200 rpm for 1 min), the plates were incubated at 37° C. for 1 hour. The cells were activated by adding 15 μL of IMMUNOCULT™ Human CD3/CD28 T Cell Activator (STEMCELL Technologies) diluted in Opti-MEM. After 24 h of incubation at 37° C., aliquots of culture supernatants were transferred to OptiPlate-384 (PerkinElmer) microplates. The level of JIL-2 secretion in the supernatants was then determined using the IL-2 (human) AiphaLISA Detection Kit (PerkinElmer) according to the manufacturer's recommendations. The AiphaLISA signal was measured using an EnVision plate reader (PerkinElmer). EC50 values were determined by fitting the data to a standard 4-parameter logistic equation. See Table 3 for data for select compounds (IL-2 Secretion (EC50)).
On the technique in general: Alpha assays give light when donor and acceptor beads are brought close together.

Chain of Cbl-b (Q13191 whole entry, species assumed): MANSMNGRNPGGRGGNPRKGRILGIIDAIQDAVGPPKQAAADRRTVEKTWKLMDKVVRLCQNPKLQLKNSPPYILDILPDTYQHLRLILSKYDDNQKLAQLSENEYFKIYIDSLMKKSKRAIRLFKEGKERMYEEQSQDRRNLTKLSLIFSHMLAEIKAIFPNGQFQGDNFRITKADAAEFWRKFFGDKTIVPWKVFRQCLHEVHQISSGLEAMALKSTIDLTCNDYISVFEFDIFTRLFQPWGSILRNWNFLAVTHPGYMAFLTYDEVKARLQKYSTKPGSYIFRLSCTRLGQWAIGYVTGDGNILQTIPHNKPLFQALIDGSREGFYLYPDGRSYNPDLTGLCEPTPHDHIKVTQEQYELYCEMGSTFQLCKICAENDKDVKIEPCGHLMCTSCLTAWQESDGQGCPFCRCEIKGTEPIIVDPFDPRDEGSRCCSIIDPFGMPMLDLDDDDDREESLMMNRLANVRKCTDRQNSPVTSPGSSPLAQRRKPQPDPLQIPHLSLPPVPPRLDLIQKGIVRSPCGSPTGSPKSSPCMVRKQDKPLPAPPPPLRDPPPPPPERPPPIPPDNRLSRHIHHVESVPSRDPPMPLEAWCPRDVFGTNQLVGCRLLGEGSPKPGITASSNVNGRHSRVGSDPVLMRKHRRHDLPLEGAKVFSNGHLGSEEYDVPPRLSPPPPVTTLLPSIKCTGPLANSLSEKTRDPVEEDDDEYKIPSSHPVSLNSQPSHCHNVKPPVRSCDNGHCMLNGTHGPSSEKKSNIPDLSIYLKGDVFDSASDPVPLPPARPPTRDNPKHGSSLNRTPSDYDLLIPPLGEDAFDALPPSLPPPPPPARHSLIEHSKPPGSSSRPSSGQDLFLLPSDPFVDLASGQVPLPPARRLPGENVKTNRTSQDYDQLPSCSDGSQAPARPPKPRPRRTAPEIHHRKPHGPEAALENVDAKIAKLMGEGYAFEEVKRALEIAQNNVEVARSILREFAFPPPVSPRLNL

In experiment [1], `CN1CCOCC1c1cc2c(C(F)(F)F)cn(-c3cc(-c4ccc(F)cc4C(=O)N4CC(F)C4)cc(C4CC4)n3)c(=O)c2[nH]1` (racemic) [Example 56, 6-[6-cyclopropyl-4-[4-fluoro-2-(3-fluoroazetidine-1-carbonyl)phenyl]pyridin-2-yl]-2-(4-methylmorpholin-3-yl)-4-(trifluoromethyl)-1H-pyrrolo[2,3-c]pyridin-7-one] showed a pIC50 greater than 7.00. This molecule gave a pEC50 in experiment [2] (Homo sapiens) of 6.00 to 7.00.
For the molecule `C[C@H]1CCCN(Cc2cc3c(C4CC4)cn(-c4cc(-c5ccc(F)cc5C(N)=O)cc(C5CC5)n4)c(=O)c3[nH]2)C1` [Example 18, 2-[2-(2-{[(S)-3-methyl-1-piperidyl]methyl}-4-cyclopropyl-7-oxo-1,6-dihydro-1,6-diaza-6-indenyl)-6-cyclopropyl-4-pyridyl]-5-fluorobenzamide], in experiment [1], the pIC50 is 6.00 to 7.00. In addition, the pEC50 in experiment [2] (Homo sapiens) is 6.00 to 7.00.
In experiment [1], `C[C@H]1CCCN(Cc2cc3c(C4CC4)cn(-c4cc(-c5ccc(F)cc5C(=O)N5CC(F)(F)C5)cc(C5CC5)n4)c(=O)c3[nH]2)C1` [Example 14, 2-{[(S)-3-methyl-1-piperidyl]methyl}-4-cyclopropyl-6-(6-cyclopropyl-4-{2-[(3,3-difluoro-1-azetidinyl)carbonyl]-4-fluorophenyl}-2-pyridyl)-1,6-dihydro-1,6-diaza-7-indenone] showed a pIC50 greater than 7.00. Further, the pEC50 in experiment [2] (Homo sapiens) was greater than 7.00.
In experiment [1], `C[C@H]1CCCN(Cc2cc3c(C4CC4)cn(-c4cc(-c5ccc(F)cc5C(=O)N5CCCC5)cc(C5CC5)n4)c(=O)c3[nH]2)C1` [Example 4, 2-{[(S)-3-methyl-1-piperidyl]methyl}-4-cyclopropyl-6-(6-cyclopropyl-4-{4-fluoro-2-[(1-pyrrolidinyl)carbonyl]phenyl}-2-pyridyl)-1,6-dihydro-1,6-diaza-7-indenone] showed a negative logarithm of the IC50 (pIC50) greater than 7.00. In experiment [2] (Homo sapiens), this molecule had a pEC50 of 6.00 to 7.00.
In the case of `CNC(=O)c1cc(F)ccc1-c1cc(C2CC2)nc(-n2cc(C3CC3)c3cc(CN4CCC[C@H](C)C4)[nH]c3c2=O)c1` [Example 6, N-methyl2-[2-(2-{[(S)-3-methyl-1-piperidyl]methyl}-4-cyclopropyl-7-oxo-1,6-dihydro-1,6-diaza-6-indenyl)-6-cyclopropyl-4-pyridyl]-5-fluorobenzamide], the pIC50 in experiment [1] was greater than 7.00. This molecule also showed a pEC50 in experiment [2] (Homo sapiens) of 6.00 to 7.00.
Molecule `CC(c1cc2ncn(-c3cc(-c4ccc(F)cc4C(=O)N4CC(F)C4)cc(C4CC4)n3)c(=O)c2[nH]1)N1CCO[C@H](C)C1` (stereo partly drawn) [Example 47, 2-{1-[(R)-2-methyl-4-morpholinyl]ethyl}-6-(6-cyclopropyl-4-{4-fluoro-2-[(3-fluoro-1-azetidinyl)carbonyl]phenyl}-2-pyridyl)-1,6-dihydro-1,4,6-triaza-7-indenone] had a pIC50 in experiment [1] greater than 7.00. The molecule also had a pEC50 in experiment [2] (Homo sapiens) of 6.00 to 7.00.
In experiment [1], `CC1CCCN1C(=O)c1cc(F)ccc1-c1cc(C2CC2)nc(-n2cc(C3CC3)c3cc(CN4CCC[C@H](C)C4)[nH]c3c2=O)c1` (stereo partly drawn) [Example 9, 2-{[(S)-3-methyl-1-piperidyl]methyl}-4-cyclopropyl-6-(6-cyclopropyl-4-{4-fluoro-2-[(2-methyl-1-pyrrolidinyl)carbonyl]phenyl}-2-pyridyl)-1,6-dihydro-1,6-diaza-7-indenone] showed a negative-log IC50 (pIC50) greater than 7.00. Further, the negative logarithm of the EC50 (pEC50) in experiment [2] (Homo sapiens) was less than 5.30.
In experiment [1], `C[C@H]1CCCN(Cc2cc3c(C4CC4)cn(-c4cc(-c5ccc(F)cc5C(=O)N5CC(F)C5)cc(C5CC5)n4)c(=O)c3[nH]2)C1` [Example 10, 2-{[(S)-3-methyl-1-piperidyl]methyl}-4-cyclopropyl-6-(6-cyclopropyl-4-{4-fluoro-2-[(3-fluoro-1-azetidinyl)carbonyl]phenyl}-2-pyridyl)-1,6-dihydro-1,6-diaza-7-indenone] gave a negative logarithm of the IC50 (pIC50) greater than 7.00. Further, the pEC50 in experiment [2] (Homo sapiens) is greater than 7.00.
`C[C@H]1CCCN(Cc2cc3c(C4CC4)cn(-c4cc(-c5ccc(F)cc5C(=O)N5CC(C#N)C5)cc(C5CC5)n4)c(=O)c3[nH]2)C1` [Example 16, 1-{2-[2-(2-{[(S)-3-methyl-1-piperidyl]methyl}-4-cyclopropyl-7-oxo-1,6-dihydro-1,6-diaza-6-indenyl)-6-cyclopropyl-4-pyridyl]-5-fluorobenzoyl}-3-azetidinecarbonitrile] had a pIC50 in experiment [1] greater than 7.00. In addition, the pEC50 in experiment [2] (Homo sapiens) is greater than 7.00.
Regarding `C[C@H]1CCCN(Cc2ccc3c(c2)C(=O)N(c2cc(-c4ccc(F)cc4C(=O)N4CC(F)C4)cc(C4CC4)n2)C3)C1` [Example 28, 6-{[(S)-3-methyl-1-piperidyl]methyl}-2-(6-cyclopropyl-4-{4-fluoro-2-[(3-fluoro-1-azetidinyl)carbonyl]phenyl}-2-pyridyl)-1-isoindolinone], in experiment [1], the pIC50 is greater than 7.00. In addition, the pEC50 in experiment [2] (Homo sapiens) was 6.00 to 7.00.
For `COCCNCc1cc2ncn(-c3cc(-c4ccc(F)cc4C(=O)N4CC(F)C4)cc(C4CC4)n3)c(=O)c2[nH]1` [Example 35, 3-[6-cyclopropyl-4-[4-fluoro-2-(3-fluoroazetidine-1-carbonyl)phenyl]pyridin-2-yl]-6-[(2-methoxyethylamino)methyl]-5H-pyrrolo[3,2-d]pyrimidin-4-one] the same measures were greater than 7.00 and greater than 7.00.
In the case of `N#Cc1c[nH]c2c(=O)n(-c3cc(-c4ccc(F)cc4C(=O)C4CC(F)C4)cc(C4CC4)n3)cc(C(F)(F)F)c12` (stereo not shown) [Example 51, 6-[6-cyclopropyl-4-[4-fluoro-2-(3-fluorocyclobutanecarbonyl)phenyl]pyridin-2-yl]-7-oxo-4-(trifluoromethyl)-1H-pyrrolo[2,3-c]pyridine-3-carbonitrile], the pIC50 in experiment [1] is greater than 7.00. In experiment [2], this molecule gave a pEC50 of 6.00 to 7.00.
With `C[C@H]1CCCN(Cc2[nH]c3c(=O)n(-c4cc(-c5ccc(F)cc5C(=O)N5CC(F)C5)cc(C5CC5)n4)cc(C#N)c3c2Cl)C1` [Example 46, 2-{[(S)-3-methyl-1-piperidyl]methyl}-3-chloro-6-(6-cyclopropyl-4-{4-fluoro-2-[(3-fluoro-1-azetidinyl)carbonyl]phenyl}-2-pyridyl)-7-oxo-1,6-dihydro-1,6-diaza-4-indenecarbonitrile], the pIC50 in experiment [1] is greater than 7.00. The pEC50 in experiment [2] (Homo sapiens) was greater than 7.00.
Take `C[C@H]1CCCN(Cc2cc3c(C#N)cn(-c4cc(-c5ccc(F)cc5C(=O)N5CC(F)C5)cc(C(F)(F)F)c4)c(=O)c3[nH]2)C1` [Example 23, 2-{[(S)-3-methyl-1-piperidyl]methyl}-6-{4′-fluoro-2′-[(3-fluoro-1-azetidinyl)carbonyl]-5-(trifluoromethyl)-3-biphenylyl}-7-oxo-1,6-dihydro-1,6-diaza-4-indenecarbonitrile]: in experiment [1], the pIC50 is 6.00 to 7.00. Moreover, the pEC50 in experiment [2] (Homo sapiens) is 5.30 to 6.00.
In experiment [1], `COC1CN(Cc2cc3ncn(-c4cc(-c5ccc(F)cc5C(=O)N5CC(F)(F)C5)cc(C5CC5)n4)c(=O)c3[nH]2)C1` [Example 43, 6-(6-cyclopropyl-4-{2-[(3,3-difluoro-1-azetidinyl)carbonyl]-4-fluorophenyl}-2-pyridyl)-2-[(3-methoxy-1-azetidinyl)methyl]-1,6-dihydro-1,4,6-triaza-7-indenone] showed a negative logarithm of the IC50 (pIC50) greater than 7.00. In experiment [2] (Homo sapiens), this molecule gave a pEC50 of 6.00 to 7.00.
On to `C[C@H]1CCCN(Cc2cc3c(C#N)cn(-c4cc(-c5ccc(F)c(F)c5C(=O)N(C)C)cc(C5CC5)n4)c(=O)c3[nH]2)C1` [Example 19, N,N-dimethyl6-[2-(2-{[(S)-3-methyl-1-piperidyl]methyl}-4-cyano-7-oxo-1,6-dihydro-1,6-diaza-6-indenyl)-6-cyclopropyl-4-pyridyl]-2,3-difluorobenzamide], for which the pIC50 in experiment [1] was greater than 7.00. The pEC50 in experiment [2] (Homo sapiens) was 6.00 to 7.00.
On to `C[C@H]1CCCN(Cc2cc3c(C#N)cn(-c4cc(C#N)cc(-c5ccc(F)cc5C(=O)N5CC(F)C5)c4)c(=O)c3[nH]2)C1` [Example 22, 2-{[(S)-3-methyl-1-piperidyl]methyl}-6-{5-cyano-4′-fluoro-2′-[(3-fluoro-1-azetidinyl)carbonyl]-3-biphenylyl}-7-oxo-1,6-dihydro-1,6-diaza-4-indenecarbonitrile], for which the pIC50 in experiment [1] is greater than 7.00. This molecule also had a negative-log EC50 (pEC50) in experiment [2] (Homo sapiens) of 6.00 to 7.00.

Source of the values: patent US20240425497A1, “Cbl-b Inhibitors and Methods of Use Thereof” (ARCUS BIOSCIENCES, INC., priority 2023, published 2024).
